Measurements taken from patent publication US8518958B2, “Pyrido [2,3-D] pyrimidines and their use as kinase inhibitors” (Forma Therapeutics, Inc., priority 2006, dated 2013).

Legend:
B-Raf delta1-415 = B-Raf delta1-415 (Homo sapiens, UniProt P15056); experiment: B-Raf kinase inhibition (MAPH filter plate, 33P-ATP, MEK1 substrate); details: read-out: Biochemical IC50 B-Raf
Method in brief: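 IC50 values come from dilution series (top 10 μM) measured by scintillation counting of 33P-labelled MEK1 retained on H3PO4-washed filters. Reactions ran 1 h at room temperature in pH 7.0 Mops buffer with MgCl2, MnCl2 and DTT, using 12.5 μCi/ml [γ-33P]ATP and B-Raf delta1-415 titrated to 50% turnover.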

HT-29 tumor cells = experiment: Anti-proliferative activity, SRB assay; format: cell-based, human; details: Homo sapiens, HT-29, 72 h, 72 hours exposure, read-out: CELLULAR IC50 HT-29
Method in brief: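 IC50 derived from % inhibition relative to DMSO controls, measured by sulforhodamine B binding (OD570) after TCA fixation. Cells (3,000-15,000 per well) were seeded a day ahead, then treated with graded compound concentrations for 72 hours.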

Sequence of B-Raf delta1-415 (P15056 416-766): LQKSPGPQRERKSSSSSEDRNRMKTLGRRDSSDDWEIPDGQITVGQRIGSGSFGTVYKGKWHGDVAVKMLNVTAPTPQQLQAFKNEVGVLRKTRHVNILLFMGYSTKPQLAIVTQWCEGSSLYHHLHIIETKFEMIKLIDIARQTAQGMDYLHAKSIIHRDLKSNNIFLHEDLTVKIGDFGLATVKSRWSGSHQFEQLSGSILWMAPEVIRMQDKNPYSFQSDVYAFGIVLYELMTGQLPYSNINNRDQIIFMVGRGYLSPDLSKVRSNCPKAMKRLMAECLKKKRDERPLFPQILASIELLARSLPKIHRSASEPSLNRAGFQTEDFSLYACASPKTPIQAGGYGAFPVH

SMILES | IC50 (B-Raf delta1-415) | IC50 (HT-29 tumor cells)
COn1c(=O)c(-c2c(Cl)cccc2Cl)cc2cnc(Nc3cc(C(=O)NCCOC(=O)[C@@H](N)C(C)C)n(C)c3)nc21 [Compound 112, 2-(5-(2-(2-(S)-2-Amino-3-methylbutanoyloxy)ethyl)aminocarbonyl-1-methyl-pyrrol-3-yl)-amino-6-(2,6-dichlorophenyl)-8-methoxy-pyrido[2,3-d]pyrimidin-7-one] | < 0.5 µM | < 1 µM
CCN(CC)CCNC(=O)c1cc(Nc2ncc3cc(-c4c(C)cccc4C)c(=O)n(OC)c3n2)cn1C [Compound 84, 6-(2,6-Dimethylphenyl)-2-(5-(2-diethylaminoethyl)aminocarbonyl-1-methyl-pyrrol-3-yl)-amino-8-methoxy-pyrido[2,3-d]pyrimidin-7-one] | < 0.5 µM | < 1 µM
COn1c(=O)c(-c2c(Cl)cccc2Cl)cc2cnc(Nc3ccc(CN4CCN(C(C)C)CC4)cc3)nc21 [Compound 166] | < 0.5 µM | < 1 µM
Nc1ncc2cc(-c3c(Cl)cccc3Cl)c(=O)n(OCc3cccnc3)c2n1 [Compound 232, 2-Amino-6-(2,6-dichlorophenyl)-8-(pyrid-3-yl)methoxy-pyrido[2,3-d]pyrimidin-7-one] | < 1 µM | < 10 µM
COn1c(=O)c(-c2c(Cl)cccc2Cl)cc2cnc(Nc3ccc(NS(C)(=O)=O)cc3)nc21 [Compound 111, 6-(2,6-Dichlorophenyl)-8-methoxy-2-(4-methylsulfonylaminophenyl)-amino-pyrido[2,3-d]pyrimidin-7-one] | < 0.1 µM | < 1 µM
CCCN1CCN(c2ccc(Nc3ncc4cc(-c5c(Cl)cccc5Cl)c(=O)n(OCCOC)c4n3)cc2)CC1 [Compound 207, 2-(4-(4-propylpiperazino)phenyl)-amino-6-(2,6-dichlorophenyl)-8-(2-methoxyethyl)oxy-pyrido[2,3-d]pyrimidin-7-one] | < 0.5 µM | < 1 µM
C/C=C/C(=O)Nc1ncc2cc(-c3c(C)cccc3C)c(=O)n(OC)c2n1 [Compound 96, 2-But-2-enoylamino-6-(2,6-dimethylphenyl)-8-methoxy-pyrido[2,3-d]pyrimidin-7-one] | > 1 µM | > 10 µM
COn1c(=O)c(-c2c(F)cccc2Cl)cc2cnc(Nc3ccc(N4CCNCC4)c(F)c3)nc21 [Compound 211, 6-(2-Chloro-6-fluorophenyl)-2-(3-fluoro-4-piperazinophenyl)-amino-8-methoxy-pyrido[2,3-d]pyrimidin-7-one] | < 0.1 µM | < 1 µM
COn1c(=O)c(-c2c(Cl)cccc2Cl)cc2cnc(Nc3ccc(SCCCO)cc3)nc21 [Compound 158, 6-(2,6-Dichlorophenyl)-2-(4-(3-hydroxypropyl)thiophenyl)-amino-8-methoxy-pyrido[2,3-d]pyrimidin-7-one] | < 0.5 µM | < 1 µM
COn1c(=O)c(-c2c(F)cccc2Cl)cc2cnc(Nc3ccc(N4CCNCC4)cc3)nc21 [Compound 198, 6-(2-Chloro-6-fluorophenyl)-8-methoxy-2-(4-piperazinophenyl)-amino-pyrido[2,3-d]pyrimidin-7-one] | < 0.1 µM | < 1 µM
COn1c(=O)c(-c2c(Cl)cccc2Cl)cc2cnc(Nc3ccc(CC#N)cc3)nc21 [Compound 97, 2-(4-cyanomethylphenyl)-amino-6-(2,6-dichlorophenyl)-8-methoxy-pyrido[2,3-d]pyrimidin-7-one] | < 0.1 µM | < 1 µM
O=c1ccc2cnc(Nc3ccccc3)nc2n1OC1CCCC1 [Compound 225] | > 1 µM | < 10 µM
COn1c(=O)c(-c2c(Cl)cccc2Cl)cc2cnc(NCCO)nc21 [Compound 102, 6-(2,6-Dichlorophenyl)-2-hydroxyethylamino-8-methoxy-pyrido[2,3-d]pyrimidin-7-one] | < 0.5 µM | < 10 µM
O=c1c(-c2c(F)cccc2Cl)cc2cnc(Nc3ccc(N4CCOCC4)cc3)nc2n1OCc1cccnc1 [Compound 132] | < 0.1 µM | < 1 µM
COn1c(=O)c(-c2c(Cl)cccc2Cl)cc2cnc(Nc3ccc(N4CCCN(C)CC4)cc3)nc21 [Compound 221, 6-(2,6-Dichlorophenyl)-8-methoxy-2-(4-(4-methyl-1,4-diazacycloheptyl)phenyl-)-amino-pyrido[2,3-d]pyrimidin-7-one] | < 0.1 µM | < 1 µM
O=c1c(-c2c(F)cccc2Cl)cc2cnc(Nc3ccccc3)nc2n1OCC1CCOCC1 [Compound 164, 6-(2-Chloro-6-fluorophenyl)-2-phenylamino-8-(tetrahydropyran-4-ylmethyl)oxy-pyrido[2,3-d]pyrimidin-7-one] | > 1 µM | < 1 µM

SMILES | IC50 (B-Raf delta1-415) | IC50 (HT-29 tumor cells)
O=c1c(-c2ccccc2Cl)cc2cnc(Nc3ccccc3)nc2n1O [Compound 240, 6-(2-Chlorophenyl)-8-hydroxy-2-phenylamino-pyrido[2,3-d]pyrimidin-7-one] | > 1 µM | < 10 µM
CCCN1CCN(c2ccc(Nc3ncc4cc(-c5c(Cl)cccc5Cl)c(=O)n(OC)c4n3)cc2)CC1 [Compound 204, 6-(2,6-Dichlorophenyl)-8-methoxy-2-(4-(4-propylpiperazino)phenyl)-amino-pyrido[2,3-d]pyrimidin-7-one] | < 0.1 µM | < 1 µM
COCCOn1c(=O)c(-c2cc(NC(=O)c3cccc(C(F)(F)F)c3)ccc2Cl)cc2cnc(Nc3ccc(N4CCN(C)CC4)cc3)nc21 [Compound 107, 8-(2-Methoxyethyl)oxy-2-(4-(4-methylpiperazino)-6-(5-(3-trifluoromethylbenzoyl)amino-2-chloro-phenyl)-phenylamino)-pyrido[2,3-d]pyrimidin-7-one] | < 0.1 µM | < 1 µM
COCCN(C)C(=O)c1cc(Nc2ncc3cc(-c4c(F)cccc4Cl)c(=O)n(OC)c3n2)cn1C [Compound 194, 6-(2-Chloro-6-fluorophenyl)-2-(5-N-(2-methoxyethyl)-N-methyl-aminocarbonyl-1-methyl-pyrrol-3-yl)-amino-8-methoxy-pyrido[2,3-d]pyrimidin-7-one] | < 0.1 µM | < 1 µM
COn1c(=O)c(-c2c(Cl)cccc2Cl)cc2cnc(Nc3csc(C(=O)N4CCN(C)CC4)c3)nc21 [Compound 142, 6-(2,6-Dichlorophenyl)-8-methoxy-2-(5-(4-methylpiperazino)carbonyl-thiophen-3-yl)-amino-pyrido[2,3-d]pyrimidin-7-one] | < 0.1 µM | < 1 µM
COn1c(=O)c(-c2c(Cl)cccc2Cl)cc2cnc(Nc3ccc(Cn4cnnc4)cc3)nc21 [Compound 175, 2-(4-(1,3,4-triazol-1-yl)methylphenyl)-amino-6-(2,6-dichlorophenyl)-8-methoxy-pyrido[2,3-d]pyrimidin-7-one] | < 0.5 µM | < 1 µM
COn1c(=O)c(-c2c(Cl)cccc2Cl)cc2cnc(Nc3ccc(CNCCO)cc3)nc21 [Compound 178, 2-(4-(2-hydroxyethylamino)methyl-phenyl)-amino-6-(2,6-dichlorophenyl)-8-methoxy-pyrido[2,3-d]pyrimidin-7-one] | < 0.5 µM | < 1 µM
COn1c(=O)c(-c2c(Cl)cccc2Cl)cc2cnc(Nc3ccccc3F)nc21 [Compound 190, 6-(2,6-Dichlorophenyl)-2-(2-fluorophenyl)amino-8-methoxy-pyrido[2,3-d]pyrimidin-7-one] | > 1 µM | < 1 µM
COn1c(=O)c(-c2c(Cl)cccc2Cl)cc2cnc(Nc3ccc(CN4CC[C@@H](O)C4)cc3)nc21 [Compound 179, 6-(2,6-Dichlorophenyl)-2-(4-(3-(R)-hydroxypyrrolidinomethyl)phenyl)-amino-8-methoxy-pyrido[2,3-d]pyrimidin-7-one] | < 0.1 µM | < 1 µM
COn1c(=O)c(-c2c(Cl)cccc2Cl)cc2cnc(Nc3ccc(CN4CCCC4)cc3)nc21 [Compound 101, 6-(2,6-Dichlorophenyl)-8-methoxy-2-(4-pyrrolidinomethylphenyl)-amino-pyrido[2,3-d]pyrimidin-7-one] | < 0.1 µM | < 1 µM
COn1c(=O)c(-c2c(Cl)cccc2Cl)cc2cnc(Nc3cccc(S(C)(=O)=O)c3)nc21 [Compound 157, 6-(2,6-Dichlorophenyl)-8-methoxy-2-(3-methylsulfonylphenyl)-amino-pyrido[2,3-d]pyrimidin-7-one] | < 0.1 µM | < 1 µM
COn1c(=O)c(-c2c(F)cccc2Cl)cc2cnc(Nc3ccc(N4CCNCC4)c(CO)c3)nc21 [Compound 218, 6-(2-Chloro-6-fluorophenyl)-8-methoxy-2-(3-hydroxymethyl-4-piperazinophenyl)-amino-pyrido[2,3-d]pyrimidin-7-one] | < 0.1 µM | < 1 µM
COCCOn1c(=O)c(-c2c(Cl)cccc2Cl)cc2cnc(Nc3ccc(N4CCNCC4)cc3)nc21 [Compound 195, 6-(2,6-Dichlorophenyl)-8-(2-methoxyethyl)oxy-2-(4-piperazinophenyl)-amino-pyrido[2,3-d]pyrimidin-7-one] | < 0.5 µM | < 1 µM
COn1c(=O)c(-c2c(F)cccc2Cl)cc2cnc(Nc3cc(C(=O)N4CCOCC4)n(C)c3)nc21 [Compound 197, 6-(2-Chloro-6-fluorophenyl)-8-methoxy-2-(5-morpholinocarbonyl-1-methyl-pyrrol-3-yl)-amino-pyrido[2,3-d]pyrimidin-7-one] | < 0.5 µM | < 1 µM
CCOn1c(=O)c(-c2c(Cl)cccc2Cl)cc2cnc(Nc3cc(C(=O)N(C)CCOC)n(C)c3)nc21 [Compound 171, 6-(2,6-Dichlorophenyl)-8-ethoxy-2-(5-N-(2-methoxyethyl)-N-methyl-aminocarbonyl-1-methyl-pyrrol-3-yl)-amino-pyrido[2,3-d]pyrimidin-7-one] | < 0.5 µM | < 1 µM
